What was measured:
[1] = test system: TCR-mediated ERK1/2 activation in Jurkat T cells; assay: Anti-CD3 (TCR) induced ERK1/2 activation in Jurkat T cells, immunoblot; format: cell-based; conditions: 2 hours pretreatment, anti-CD3 stimulation
Method: (§1) Jurkat T cells were grown at 37° C. under an atmosphere of 5% CO2 in RPMI medium 1640 supplemented with 10% FBS. Cells were pretreated with different concentrations of TTN, TTN D-1, or TTM for 2 hours and stimulated with […] anti-CD3 antibody (OKT3; eBioscience) for 5 min and 30 min, respectively. Subsequently, cells were spinned down at 2000 rpm in 4° C., and cell pellets were lysed in 50 mM Tris-HCl (pH 7.5), 150 mM NaCl, 10% glycerol, 1% NP-40, 50 mM NaF, 10 mM pyrophosphate, 5 mM idoacetate, 1 mM sodium orthovanadate, and the protease inhibitor mixture. After 30 min lysing on ice, the cell lysates were centrifuged at 13,200 rpm for 15 min. Total cellular proteins were separated by SDS/PAGE and transferred electrophoretically to nitrocellulose membrane, which was immunoblotted by appropriate antibodies followed by incubation with HRP-conjugated secondary antibodies. Blots were developed using Pierce Pico ECL reagent (Thermo) according to the manufacturer's instructions.
(§2) TTN induces immunosuppression by suppression of TCR-mediated tyrosine phosphorylation and ERK1/2 activity in T cells (Shim et al., 2002). However, the mechanism of action for TTN's ability to block TCR signaling remains undefined. […]

[2] = test system: PP1; conditions: literature values; cited from earlier work
[3] = target: T1, SHP2 (Homo sapiens, UniProt Q06124); assay: PTP activity assay with pNPP as substrate: SHP2; format: biochemical
T1 construct: The expression and purification of the SHP2 catalytic domain (residues 262-528) were described previously; made in house
T1 sequence (Q06124 262-528): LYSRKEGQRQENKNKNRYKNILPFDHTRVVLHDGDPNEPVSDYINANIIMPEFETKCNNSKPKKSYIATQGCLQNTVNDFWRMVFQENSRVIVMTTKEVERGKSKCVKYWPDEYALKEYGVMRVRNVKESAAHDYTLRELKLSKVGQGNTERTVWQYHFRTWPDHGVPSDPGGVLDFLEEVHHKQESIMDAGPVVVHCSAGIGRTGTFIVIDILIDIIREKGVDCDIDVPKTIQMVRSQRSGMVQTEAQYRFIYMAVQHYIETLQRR
Method: The effect of the compounds on PTP-catalyzed hydrolysis of p-nitrophenyl phosphate (pNPP) was assessed at pH 7 and 25° C. Members of the PTP superfamily that were included in the screen included the cytosolic PTPs, PTP1B, SHP1, SHP2, Lyp, HePTP, Meg2, and FAP1, the receptor-like PTPs, CD45, LAR, and PTPα, the dual specificity phosphatases VHR, VHX, and Cdc14, and the low molecular weight PTP.
Therefore, all of the IC50 values reported in this study directly reflect the true affinity of the compound for the enzymes tested.

[4] = test system: PP2A; conditions: literature values; cited from earlier work
[5] = test system: panel of PTPs (PTP1B, SHP1, SHP2, Lyp, HePTP, Meg2, FAP1, CD45, LAR, PTPα, VHR, VHX, Cdc14, low molecular weight PTP); assay: Screen against a panel of PTPs at 10 μM compound (pNPP hydrolysis); format: biochemical; conditions: pH 7, 25° C.
Method: The PTP activity was assayed using pNPP as a substrate at 25° C. in 50 mM 3,3-dimethylglutarate buffer, pH 7.0, containing 1 mM EDTA with an ionic strength of 0.15 M adjusted by NaCl. TTM, TTN and the engineered analogs were analyzed for inhibition of a panel of PTPs at 10 μM compound concentration. For each enzyme screened, test compounds were diluted to 20 μM in 100 μL and combined with 50 μL pNPP at a concentration of 4×Km. The reaction was initiated by the addition of 50 μL of 4× concentrated enzyme and pNPP was allowed to convert to the product p-nitrophenol. The reaction was quenched by the addition of 50 μL of 5N NaOH. Nonenzymatic hydrolysis of pNPP was corrected by measuring the control without the addition of enzyme. Production of p-nitrophenol was monitored by a Spectra MAX385 microplate spectrophotometer (Molecular Devices) at 405 nm using a molar extinction coefficient of 18,000 M^−1 cm^−1. IC50 values were calculated by fitting the absorbance at 405 nm versus inhibitor concentration to the following equation: AI/A0=IC50/(IC50+[I]) where AI is the absorbance at 405 nm of the sample in the presence of inhibitor; Ao is the absorbance at 405 nm in the absence of inhibitor; and [I] is the concentration of the inhibitor. […]

[6] = test system: TCR-mediated tyrosine phosphorylation in Jurkat T cells; assay: Anti-CD3 (TCR) induced tyrosine phosphorylation in Jurkat T cells, immunoblot; format: cell-based; conditions: 2-4 μM, 2 hours pretreatment, anti-CD3 stimulation
Method: as §1, §2

For `CO[C@H]([C@H](O)CC(=O)[C@@H](C)[C@@H](O)CC[C@@H](C)[C@@H]1O[C@]2(CC[C@@H](C)[C@H](CC[C@H](C)C(C)=O)O2)CC[C@@H]1C)[C@H](OC(=O)C[C@@H](O)C1=C(C)C(=O)OC1=O)C(C)C` [TTM, tautomycin, reference compound], the “effect on TCR-mediated ERK1/2 activation” value [1] is listed as “no appreciable change”, the IC50 [2] is listed as 22 to 32 nM and the “SHP2 inhibitory activity (in words)” value [3] is listed as “does not inhibit SHP2 activity”. For the same compound, the IC50 [4] was 22 to 32 nM, the “inhibitory activity against the panel of PTPs” value [5] was “neither TTM nor its analogs exhibited any inhibitory activity” and the “effect on TCR-mediated tyrosine phosphorylation” value [6] was “had no effect”.

— US8637684B2, “Tautomycetin and tautomycetin analog biosynthesis” (Wisconsin Alumni Research Foundation, priority 2010, dated 2014)
